# Test system: L. johnsonii YIT0482 strain
# Experiment: Antibiotic resistance test, L. johnsonii
# Type: cell-based, Lactobacillus johnsonii
# Experimental: The 11 antibiotics shown in Table 3 were separately added at concentrations of 100, 10, 1, 0.1, and 0 μg/ml, to thereby prepare MRS agar mediums (manufactured by Difco). Subsequently, cell culture solutions of the five bacterial stains (A) and (B) obtained in Production Example 1 (10 μl each) were separately inoculated into the respective antibiotic-containing MRS mediums (the cell number of each bacterial strain: about 1·10^8 cells/ml), followed by smear culture at 37° C. for 48 hours under anaerobic conditions. The proliferated bacteria were evaluated with the naked eye, and the […] for each antibiotic (μg/ml) were calculated.
substance,measurement,value
Gentamicin,Resistance of the strain to the antibiotic (in words),excellent specific resistance

# Reference: US20070286888A1, “Additive For Feeds And Feed Containing The Same” (Kabushiki Kaisha Yakult Honsha, priority 2004, published 2007)
